Measurements: patent EP4722207A1, “OXOISOINDOLINYL-SUBSTITUTED TETRAHYDROPYRIMIDINEDIONE DERIVATIVE AND USE THEREOF” (Gluetacs Therapeutics (Shanghai) Co., Ltd., priority 2023, dated 2024)

Key:
H292 = experiment: Cell viability assay (CellTiter-Meiluncell Luminescent), tumor cell proliferation, H292; settings: Homo sapiens, NCI-H292, 96 h; for inhibition at 0.01 µM: read-out: Inhibition Rate at 10 nM (%); for inhibition at 0.5 µM: read-out: Inhibition Rate at 500 nM (%)
MDA-MB-231 = experiment: Cell viability assay (CellTiter-Meiluncell Luminescent), tumor cell proliferation, MDA-MB-231; settings: Homo sapiens, MDA-MB-231, 96 h; for inhibition at 0.01 µM: read-out: Inhibition Rate at 10 nM (%); for inhibition at 0.5 µM: read-out: Inhibition Rate at 500 nM (%)
GSPT1 = biological target: T1, GSPT1 (Homo sapiens, UniProt P15170+Q96SW2); experiment: Western-blot assay, substrate protein degradation in hPBMCs: GSPT1; format: cell-based; settings: 24 hours of compound treatment, 50 nM and 500 nM
T1 construct: effects of the compounds of the present disclosure on the expression of target proteins in cells; endogenous in cells; host or cells: human PBMCs (hPBMCs)
T1 sequence (P15170 whole entry): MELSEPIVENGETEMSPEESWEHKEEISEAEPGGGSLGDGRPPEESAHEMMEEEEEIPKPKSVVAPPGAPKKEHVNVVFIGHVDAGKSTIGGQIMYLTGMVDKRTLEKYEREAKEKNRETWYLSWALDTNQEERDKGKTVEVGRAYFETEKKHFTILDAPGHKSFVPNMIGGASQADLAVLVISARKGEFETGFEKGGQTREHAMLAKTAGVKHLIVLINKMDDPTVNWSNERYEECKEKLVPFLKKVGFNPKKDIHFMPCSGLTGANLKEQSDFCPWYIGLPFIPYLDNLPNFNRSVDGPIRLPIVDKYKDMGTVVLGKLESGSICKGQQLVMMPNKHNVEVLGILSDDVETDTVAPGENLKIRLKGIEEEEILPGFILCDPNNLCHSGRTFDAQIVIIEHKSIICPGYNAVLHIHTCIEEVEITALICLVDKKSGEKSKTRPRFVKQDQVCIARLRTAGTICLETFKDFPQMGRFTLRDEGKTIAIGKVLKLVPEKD
T1 sequence (Q96SW2 whole entry): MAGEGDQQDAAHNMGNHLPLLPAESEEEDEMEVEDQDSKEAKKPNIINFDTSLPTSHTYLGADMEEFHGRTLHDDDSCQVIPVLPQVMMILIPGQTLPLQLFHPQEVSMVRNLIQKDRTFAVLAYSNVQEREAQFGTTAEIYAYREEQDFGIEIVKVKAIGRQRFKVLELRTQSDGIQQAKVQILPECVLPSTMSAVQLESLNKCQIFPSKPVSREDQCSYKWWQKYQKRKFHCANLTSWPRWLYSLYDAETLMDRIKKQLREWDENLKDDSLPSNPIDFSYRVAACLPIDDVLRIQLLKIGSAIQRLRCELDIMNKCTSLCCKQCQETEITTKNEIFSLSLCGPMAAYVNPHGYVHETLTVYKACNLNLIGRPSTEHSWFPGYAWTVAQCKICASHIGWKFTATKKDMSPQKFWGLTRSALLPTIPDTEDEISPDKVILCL
T1 sequence (Q16531 whole entry partner): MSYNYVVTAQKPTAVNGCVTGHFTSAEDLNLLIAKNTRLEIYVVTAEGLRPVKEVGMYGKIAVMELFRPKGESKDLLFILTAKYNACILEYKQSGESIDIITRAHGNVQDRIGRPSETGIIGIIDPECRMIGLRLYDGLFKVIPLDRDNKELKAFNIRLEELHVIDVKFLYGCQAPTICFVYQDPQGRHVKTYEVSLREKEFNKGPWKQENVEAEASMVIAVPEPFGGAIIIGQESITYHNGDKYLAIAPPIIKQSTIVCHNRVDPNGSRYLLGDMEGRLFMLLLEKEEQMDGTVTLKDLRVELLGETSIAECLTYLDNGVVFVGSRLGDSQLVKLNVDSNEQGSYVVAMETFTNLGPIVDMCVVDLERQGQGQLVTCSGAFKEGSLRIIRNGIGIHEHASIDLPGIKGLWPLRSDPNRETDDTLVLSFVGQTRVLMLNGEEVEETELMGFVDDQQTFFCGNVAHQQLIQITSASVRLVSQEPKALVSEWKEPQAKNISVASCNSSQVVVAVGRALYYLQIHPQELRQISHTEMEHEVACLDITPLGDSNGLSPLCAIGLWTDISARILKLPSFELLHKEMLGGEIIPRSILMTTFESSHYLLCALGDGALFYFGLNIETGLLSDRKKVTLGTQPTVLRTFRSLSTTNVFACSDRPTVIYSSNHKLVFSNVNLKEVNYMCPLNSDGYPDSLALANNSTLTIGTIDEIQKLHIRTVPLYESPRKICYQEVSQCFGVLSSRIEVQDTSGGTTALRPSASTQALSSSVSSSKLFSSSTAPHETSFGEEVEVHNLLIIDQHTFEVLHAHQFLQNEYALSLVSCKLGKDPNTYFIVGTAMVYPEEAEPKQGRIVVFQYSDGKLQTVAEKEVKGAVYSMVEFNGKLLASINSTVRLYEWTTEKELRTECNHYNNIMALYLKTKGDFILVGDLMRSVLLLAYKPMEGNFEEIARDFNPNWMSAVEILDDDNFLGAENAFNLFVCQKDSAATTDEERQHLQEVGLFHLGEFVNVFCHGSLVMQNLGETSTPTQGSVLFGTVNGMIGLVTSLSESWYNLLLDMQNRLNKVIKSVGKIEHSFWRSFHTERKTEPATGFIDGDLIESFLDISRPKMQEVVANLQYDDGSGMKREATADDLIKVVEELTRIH

IKZF3 = biological target: T2, IKZF3 (Homo sapiens, UniProt Q96SW2+Q9UKT9); experiment: Western-blot assay, substrate protein degradation in hPBMCs: IKZF3; format: cell-based; settings: 24 hours of compound treatment, 50 nM and 500 nM
T2 construct: effects of the compounds of the present disclosure on the expression of target proteins in cells; endogenous in cells; host or cells: human PBMCs (hPBMCs)
T2 sequence (Q9UKT9 whole entry): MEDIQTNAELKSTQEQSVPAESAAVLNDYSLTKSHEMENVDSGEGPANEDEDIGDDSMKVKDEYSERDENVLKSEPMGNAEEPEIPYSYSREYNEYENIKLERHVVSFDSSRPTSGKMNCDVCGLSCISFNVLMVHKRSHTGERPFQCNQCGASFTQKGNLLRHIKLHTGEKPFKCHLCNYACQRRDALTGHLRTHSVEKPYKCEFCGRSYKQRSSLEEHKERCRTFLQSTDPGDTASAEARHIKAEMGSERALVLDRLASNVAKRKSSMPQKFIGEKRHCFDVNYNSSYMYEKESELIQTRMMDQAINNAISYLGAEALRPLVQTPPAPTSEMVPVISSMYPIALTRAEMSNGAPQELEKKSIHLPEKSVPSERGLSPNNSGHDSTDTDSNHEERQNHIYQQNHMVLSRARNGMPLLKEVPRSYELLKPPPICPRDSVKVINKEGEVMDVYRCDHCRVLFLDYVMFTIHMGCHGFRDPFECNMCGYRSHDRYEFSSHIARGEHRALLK
T2 sequence (Q96SW2 whole entry): as the sequence (Q96SW2 whole entry) above
T2 sequence (Q16531 whole entry partner): as the sequence (Q16531 whole entry partner) above

IKZF1 = biological target: T3, IKZF1 (Homo sapiens, UniProt Q13422+Q96SW2); experiment: Western-blot assay, substrate protein degradation in hPBMCs: IKZF1; format: cell-based; settings: 24 hours of compound treatment, 50 nM and 500 nM
T3 construct: effects of the compounds of the present disclosure on the expression of target proteins in cells; endogenous in cells; host or cells: human PBMCs (hPBMCs)

CK1α = biological target: T4, CK1α (Homo sapiens, UniProt P48729+Q96SW2); experiment: Western-blot assay, substrate protein degradation in hPBMCs: CK1α; format: cell-based; settings: 24 hours of compound treatment, 50 nM and 500 nM
T4 construct: effects of the compounds of the present disclosure on the expression of target proteins in cells; endogenous in cells; host or cells: human PBMCs (hPBMCs)
T4 sequence (P48729 whole entry): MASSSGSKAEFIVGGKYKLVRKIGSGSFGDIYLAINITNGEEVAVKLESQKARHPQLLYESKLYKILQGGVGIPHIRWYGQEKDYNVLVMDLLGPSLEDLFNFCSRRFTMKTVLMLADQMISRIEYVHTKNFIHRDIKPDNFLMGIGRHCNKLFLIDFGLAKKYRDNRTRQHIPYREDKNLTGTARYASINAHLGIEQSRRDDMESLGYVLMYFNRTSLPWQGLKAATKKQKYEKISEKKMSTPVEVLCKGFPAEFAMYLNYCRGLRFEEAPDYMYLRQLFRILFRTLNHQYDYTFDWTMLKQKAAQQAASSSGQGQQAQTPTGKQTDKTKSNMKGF
T4 sequence (Q96SW2 whole entry): as the sequence (Q96SW2 whole entry) above
T4 sequence (Q16531 whole entry partner): as the sequence (Q16531 whole entry partner) above

IKZF2 = biological target: T5, IKZF2 (Homo sapiens, UniProt Q96SW2+Q9UKS7); experiment: Western-blot assay, substrate protein degradation in hPBMCs: IKZF2; format: cell-based; settings: 24 hours of compound treatment, 50 nM and 500 nM
T5 construct: effects of the compounds of the present disclosure on the expression of target proteins in cells; endogenous in cells; host or cells: human PBMCs (hPBMCs)
T5 sequence (Q9UKS7 whole entry): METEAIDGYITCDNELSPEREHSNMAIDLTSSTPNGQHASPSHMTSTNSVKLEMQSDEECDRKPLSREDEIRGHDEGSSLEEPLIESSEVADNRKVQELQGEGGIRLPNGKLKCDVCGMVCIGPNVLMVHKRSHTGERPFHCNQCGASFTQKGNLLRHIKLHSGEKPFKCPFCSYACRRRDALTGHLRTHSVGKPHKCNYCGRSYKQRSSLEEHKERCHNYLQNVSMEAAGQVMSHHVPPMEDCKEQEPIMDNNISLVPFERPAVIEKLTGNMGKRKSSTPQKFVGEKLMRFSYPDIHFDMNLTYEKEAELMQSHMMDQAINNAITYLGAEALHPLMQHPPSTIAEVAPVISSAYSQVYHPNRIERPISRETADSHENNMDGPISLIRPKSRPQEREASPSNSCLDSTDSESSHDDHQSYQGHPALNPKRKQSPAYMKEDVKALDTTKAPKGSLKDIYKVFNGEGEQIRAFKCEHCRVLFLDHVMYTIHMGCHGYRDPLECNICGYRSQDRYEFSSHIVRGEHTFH
T5 sequence (Q96SW2 whole entry): as the sequence (Q96SW2 whole entry) above
T5 sequence (Q16531 whole entry partner): as the sequence (Q16531 whole entry partner) above

WEE1 = biological target: T6, WEE1 (Homo sapiens, UniProt P30291+Q96SW2); experiment: Western-blot assay, substrate protein degradation in hPBMCs: WEE1; format: cell-based; settings: 24 hours of compound treatment, 50 nM and 500 nM
T6 construct: effects of the compounds of the present disclosure on the expression of target proteins in cells; endogenous in cells; host or cells: human PBMCs (hPBMCs)
T6 sequence (P30291 whole entry): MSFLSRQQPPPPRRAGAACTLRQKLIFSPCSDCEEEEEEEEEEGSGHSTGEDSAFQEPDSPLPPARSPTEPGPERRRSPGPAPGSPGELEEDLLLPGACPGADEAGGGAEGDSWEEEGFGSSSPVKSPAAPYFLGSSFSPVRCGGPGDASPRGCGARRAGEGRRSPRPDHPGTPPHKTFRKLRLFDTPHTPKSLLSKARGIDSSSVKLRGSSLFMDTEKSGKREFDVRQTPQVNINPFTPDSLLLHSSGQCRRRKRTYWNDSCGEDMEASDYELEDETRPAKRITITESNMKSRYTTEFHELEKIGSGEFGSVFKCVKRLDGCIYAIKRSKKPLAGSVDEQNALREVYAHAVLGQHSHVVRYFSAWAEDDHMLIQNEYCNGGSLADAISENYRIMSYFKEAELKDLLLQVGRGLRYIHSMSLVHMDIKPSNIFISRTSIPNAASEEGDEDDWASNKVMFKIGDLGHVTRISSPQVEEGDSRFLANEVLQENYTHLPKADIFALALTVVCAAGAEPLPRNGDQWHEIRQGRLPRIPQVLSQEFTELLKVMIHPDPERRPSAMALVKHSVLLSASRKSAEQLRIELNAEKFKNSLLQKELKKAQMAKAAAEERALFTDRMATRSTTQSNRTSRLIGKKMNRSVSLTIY
T6 sequence (Q96SW2 whole entry): as the sequence (Q96SW2 whole entry) above
T6 sequence (Q16531 whole entry partner): as the sequence (Q16531 whole entry partner) above

MV-4-11 = experiment: Cell viability assay (CellTiter-Meiluncell Luminescent), tumor cell proliferation, MV-4-11; settings: Homo sapiens, MV4-11, 96 h; for inhibition at 0.01 µM: read-out: Inhibition Rate at 10 nM (%); for inhibition at 0.5 µM: read-out: Inhibition Rate at 500 nM (%)

Row | SMILES | inhibition at 0.01 µM (H292) [%] | inhibition at 0.5 µM (H292) [%] | inhibition at 0.01 µM (MDA-MB-231) [%] | inhibition at 0.5 µM (MDA-MB-231) [%] | substrate protein remaining % GSPT1 (GSPT1) | substrate protein remaining % IKZF3 (IKZF3) | substrate protein remaining % IKZF1 (IKZF1) | substrate protein remaining % CK1α (CK1α) | substrate protein remaining % IKZF2 (IKZF2) | substrate protein remaining % WEE1 (WEE1) | inhibition at 0.01 µM (MV-4-11) [%] | inhibition at 0.5 µM (MV-4-11) [%]
1 | CC1(C)[C@@H]2CC[C@]1(CS(=O)(=O)NCc1ccc3c(c1)C(=O)N(N1CCC(=O)NC1=O)C3=O)C(=O)C2 [GT-07998, 1-((1R,4R)-7,7-dimethyl-2-oxobicyclo[2.2.1]heptan-1-yl)-N-((2-(2,4-dioxotetrahydropyrimidin-1(2H)-yl)-1,3-dioxoisoindolin-5-yl)methyl)methanesulfonamide] | 15 to 20 | 1 to 5 | 25 to 40 | 10 to 15 | – | – | – | – | – | – | – | –
2 | Cc1csc2ncnc(N3CCN(Cc4ccc5c(c4)CN(N4CCC(=O)NC4=O)C5=O)CC3)c12 [GT-08058, 1-(5-((4-(5-methylthieno[2,3-d]pyrimidin-4-yl)piperazin-1-yl)methyl)-1-oxoisoindolin-2-yl)dihydropyrimidine-2,4(1H,3H)-dione] | – | – | 25 to 40 | 15 to 18 | B (80%< substrate protein remaining %≤ 100%) | B (80%< substrate protein remaining %≤ 100%) | A (0% ≤ substrate protein remaining % ≤ 80%) | B (80%< substrate protein remaining %≤ 100%) | B (80%< substrate protein remaining %≤ 100%) | B (80%< substrate protein remaining %≤ 100%) | – | –
3 | Cc1nc(N2CCN(Cc3ccc4c(c3)CN(N3CCC(=O)NC3=O)C4=O)CC2)c2c3c(sc2n1)CCCC3 [GT-08068, 1-(5-((4-(2-methyl-5,6,7,8-tetrahydrobenzo[4,5]thieno[2,3-d]pyrimidin-4-yl)piperazin-1-yl)methyl)-1-oxoisoindolin-2-yl)dihydropyrimidine-2,4(1H,3H)-dione] | 20 to 40 | 20 to 40 | – | – | B (80%< substrate protein remaining %≤ 100%) | B (80%< substrate protein remaining %≤ 100%) | B (80%< substrate protein remaining %≤ 100%) | A (0% ≤ substrate protein remaining % ≤ 80%) | A (0% ≤ substrate protein remaining % ≤ 80%) | B (80%< substrate protein remaining %≤ 100%) | 18 to 25 | 18 to 25
4 | Cc1cc2c(C3CCN(Cc4ccc5c(c4)C(=O)N(N4CCC(=O)NC4=O)C5=O)CC3)ncnc2s1 [GT-08107, 2-(2,4-dioxotetrahydropyrimidin-1(2H)-yl)-5-((4-(6-methylthieno[2,3-d]pyrimidin-4-yl)piperidin-1-yl)methyl)isoindoline-1,3-dione] | 5 to 10 | 10 to 15 | – | – | A (0% ≤ substrate protein remaining % ≤ 80%) | A (0% ≤ substrate protein remaining % ≤ 80%) | A (0% ≤ substrate protein remaining % ≤ 80%) | A (0% ≤ substrate protein remaining % ≤ 80%) | A (0% ≤ substrate protein remaining % ≤ 80%) | A (0% ≤ substrate protein remaining % ≤ 80%) | 30 to 40 | 40 to 60
5 | O=C1CCN(N2C(=O)c3ccc(CN4CCC(c5ncnc6sc(-c7ccccc7)cc56)CC4)cc3C2=O)C(=O)N1 [GT-08108, 2-(2,4-dioxotetrahydropyrimidin-1(2H)-yl)-5-((4-(6-phenylthieno[2,3-d]pyrimidin-4-yl)piperidin-1-yl)methyl)isoindoline-1,3-dione] | 20 to 40 | 15 to 20 | 25 to 40 | 18 to 25 | A (0% ≤ substrate protein remaining % ≤ 80%) | A (0% ≤ substrate protein remaining % ≤ 80%) | A (0% ≤ substrate protein remaining % ≤ 80%) | A (0% ≤ substrate protein remaining % ≤ 80%) | A (0% ≤ substrate protein remaining % ≤ 80%) | A (0% ≤ substrate protein remaining % ≤ 80%) | – | –
6 | O=C1CCN(N2C(=O)c3ccc(CN4CCC(c5ncnc6scc(-c7ccccc7)c56)CC4)cc3C2=O)C(=O)N1 [GT-08109, 2-(2,4-dioxotetrahydropyrimidin-1(2H)-yl)-5-((4-(5-phenylthieno[2,3-d]pyrimidin-4-yl)piperidin-1-yl)methyl)isoindoline-1,3-dione] | 15 to 20 | 1 to 5 | 18 to 25 | 5 to 10 | A (0% ≤ substrate protein remaining % ≤ 80%) | A (0% ≤ substrate protein remaining % ≤ 80%) | A (0% ≤ substrate protein remaining % ≤ 80%) | A (0% ≤ substrate protein remaining % ≤ 80%) | A (0% ≤ substrate protein remaining % ≤ 80%) | A (0% ≤ substrate protein remaining % ≤ 80%) | – | –
7 | Cc1nc(C2CCN(Cc3ccc4c(c3)CN(N3CCC(=O)NC3=O)C4=O)CC2)c2c3c(sc2n1)CCC3 [GT-08114, 1-(5-((4-(2-methyl-6,7-dihydro-5H-cyclopenta[4,5]thieno[2,3-d]pyrimidin-4-yl)piperidin-1-yl)methyl)-1-oxoisoindolin-2-yl)dihydropyrimidine-2,4(1H,3H)-dione] | 20 to 40 | 10 to 15 | 18 to 25 | 18 to 25 | A (0% ≤ substrate protein remaining % ≤ 80%) | B (80%< substrate protein remaining %≤ 100%) | B (80%< substrate protein remaining %≤ 100%) | B (80%< substrate protein remaining %≤ 100%) | B (80%< substrate protein remaining %≤ 100%) | B (80%< substrate protein remaining %≤ 100%) | – | –
8 | Cc1csc2ncnc(C3=CCN(Cc4ccc5c(c4)CN(N4CCC(=O)NC4=O)C5=O)CC3)c12 [GT-08117, 1-(5-((4-(5-methylthieno[2,3-d]pyrimidin-4-yl)-3,6-dihydropyridin-1(2H)-yl)methyl)-1-oxoisoindolin-2-yl)dihydropyrimidine-2,4(1H,3H)-dione] | 20 to 40 | 20 to 40 | 18 to 25 | 18 to 25 | A (0% ≤ substrate protein remaining % ≤ 80%) | A (0% ≤ substrate protein remaining % ≤ 80%) | B (80%< substrate protein remaining %≤ 100%) | A (0% ≤ substrate protein remaining % ≤ 80%) | B (80%< substrate protein remaining %≤ 100%) | B (80%< substrate protein remaining %≤ 100%) | – | –
9 | O=C1CCN(N2C(=O)c3ccc(CN4CCN(c5nccc(Cl)c5F)CC4)cc3C2=O)C(=O)N1 [GT-08190, 5-((4-(4-chloro-3-fluoropyridin-2-yl)piperazin-1-yl)methyl)-2-(2,4-dioxotetrahydropyrimidin-1(2H)-yl)isoindoline-1,3-dione] | 20 to 40 | 20 to 40 | 18 to 25 | 10 to 15 | – | – | – | – | – | – | – | –
